Data as given in PubChem BioAssay (NCI).
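Cells were grown in 96-well plates and exposed to each compound for 48 hours at five concentrations; endpoints were interpolated linearly between bracketing concentrations, or set to the highest concentration if not reached. GI50 is the concentration that inhibits growth by half. TGI denotes the concentration required for complete inhibition of growth.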

What was measured:
Assay in all cases: NCI tumour cell line growth inhibition, 48 h
DMS 273 small cell lung = test system: DMS 273 small cell lung
SR leukemia = test system: SR leukemia
SNB-75 CNS = test system: SNB-75 CNS
786-0 renal = test system: 786-0 renal
MALME-3M melanoma = test system: MALME-3M melanoma
SN12C renal = test system: SN12C renal
UACC-62 melanoma = test system: UACC-62 melanoma
HCT-116 colon = test system: HCT-116 colon
SK-MEL-28 melanoma = test system: SK-MEL-28 melanoma
TK-10 renal = test system: TK-10 renal
NCI-H522 lung = test system: NCI-H522 lung
K-562 leukemia = test system: K-562 leukemia
MOLT-4 leukemia = test system: MOLT-4 leukemia
SF-268 CNS = test system: SF-268 CNS
NCI-H23 lung = test system: NCI-H23 lung
UACC-257 melanoma = test system: UACC-257 melanoma
SW-620 colon = test system: SW-620 colon
OVCAR-3 ovarian = test system: OVCAR-3 ovarian
OVCAR-4 ovarian = test system: OVCAR-4 ovarian
LXFL 529 NSCLC = test system: LXFL 529 NSCLC
A498 renal = test system: A498 renal
M19-MEL melanoma = test system: M19-MEL melanoma
IGROV1 ovarian = test system: IGROV1 ovarian
SNB-19 CNS = test system: SNB-19 CNS
HL-60(TB) leukemia = test system: HL-60(TB) leukemia
NCI-H460 lung = test system: NCI-H460 lung
KM12 colon = test system: KM12 colon
UO-31 renal = test system: UO-31 renal
OVCAR-5 ovarian = test system: OVCAR-5 ovarian
HCT-15 colon = test system: HCT-15 colon
SF-295 CNS = test system: SF-295 CNS
EKVX NSCLC = test system: EKVX NSCLC
RPMI-8226 leukemia = test system: RPMI-8226 leukemia
SK-MEL-5 melanoma = test system: SK-MEL-5 melanoma
HOP-62 NSCLC = test system: HOP-62 NSCLC
CCRF-CEM leukemia = test system: CCRF-CEM leukemia
DMS 114 small cell lung = test system: DMS 114 small cell lung
SF-539 CNS = test system: SF-539 CNS
ACHN renal = test system: ACHN renal
DLD-1 colon = test system: DLD-1 colon
LOX IMVI melanoma = test system: LOX IMVI melanoma
NCI-H226 lung = test system: NCI-H226 lung
HCC-2998 colon = test system: HCC-2998 colon
M14 melanoma = test system: M14 melanoma
OVCAR-8 ovarian = test system: OVCAR-8 ovarian
A549 NSCLC = test system: A549 NSCLC
COLO 205 colon = test system: COLO 205 colon
HT29 colon = test system: HT29 colon
SK-MEL-2 melanoma = test system: SK-MEL-2 melanoma
CAKI-1 renal = test system: CAKI-1 renal
KM20L2 colon = test system: KM20L2 colon
HOP-18 NSCLC = test system: HOP-18 NSCLC
HOP-92 NSCLC = test system: HOP-92 NSCLC
SK-OV-3 ovarian = test system: SK-OV-3 ovarian
U251 CNS = test system: U251 CNS

`Cc1ccc(C(=O)N2CCCCC2)cc1N=NN(C)C` gave a TGI (DMS 273 small cell lung) greater than 100 µM, a TGI (SR leukemia) greater than 100 µM and a TGI (SNB-75 CNS) greater than 100 µM. It also gave a TGI (786-0 renal) greater than 100 µM, a TGI (MALME-3M melanoma) greater than 100 µM and a TGI (SN12C renal) greater than 100 µM. It also gave a TGI (UACC-62 melanoma) greater than 100 µM, a TGI (HCT-116 colon) greater than 100 µM and a TGI (SK-MEL-28 melanoma) greater than 100 µM. It also gave a TGI (TK-10 renal) greater than 100 µM, a TGI (NCI-H522 lung) greater than 100 µM and a TGI (K-562 leukemia) greater than 100 µM. It also gave a TGI (MOLT-4 leukemia) greater than 100 µM, a TGI (SF-268 CNS) greater than 100 µM and a TGI (NCI-H23 lung) greater than 100 µM. It also gave a TGI (UACC-257 melanoma) greater than 100 µM, a TGI (SW-620 colon) greater than 100 µM and a TGI (OVCAR-3 ovarian) greater than 100 µM. The TGI (OVCAR-4 ovarian) was greater than 100 µM, the TGI (LXFL 529 NSCLC) was greater than 100 µM and the TGI (A498 renal) was greater than 100 µM. For the same compound, the TGI (M19-MEL melanoma) was greater than 100 µM, the TGI (IGROV1 ovarian) was greater than 100 µM and the TGI (SNB-19 CNS) was greater than 100 µM. It also gave a TGI (HL-60(TB) leukemia) greater than 100 µM, a TGI (NCI-H460 lung) greater than 100 µM and a TGI (KM12 colon) greater than 100 µM. The TGI (UO-31 renal) was greater than 100 µM, the TGI (OVCAR-5 ovarian) was greater than 100 µM and the TGI (HCT-15 colon) was greater than 100 µM. For the same compound, the TGI (SF-295 CNS) was greater than 100 µM, the TGI (EKVX NSCLC) was greater than 100 µM and the TGI (RPMI-8226 leukemia) was greater than 100 µM. It also gave a TGI (SK-MEL-5 melanoma) greater than 100 µM, a TGI (HOP-62 NSCLC) greater than 100 µM and a TGI (CCRF-CEM leukemia) greater than 100 µM. The TGI (DMS 114 small cell lung) was greater than 100 µM, the TGI (SF-539 CNS) was greater than 100 µM and the TGI (ACHN renal) was greater than 100 µM. The TGI (DLD-1 colon) was greater than 100 µM, the TGI (LOX IMVI melanoma) was greater than 100 µM and the TGI (NCI-H226 lung) was greater than 100 µM. The TGI (HCC-2998 colon) was greater than 100 µM, the TGI (M14 melanoma) was greater than 100 µM and the TGI (OVCAR-8 ovarian) was greater than 100 µM. For the same compound, the TGI (A549 NSCLC) was greater than 100 µM, the TGI (COLO 205 colon) was greater than 100 µM and the TGI (HT29 colon) was greater than 100 µM. The TGI (SK-MEL-2 melanoma) was greater than 100 µM and the TGI (CAKI-1 renal) was greater than 100 µM.
In the case of `O=C1C(=C([O-])c2ccccc2)C(=O)c2ccccc21.O=C1C(=C([O-])c2ccccc2)C(=O)c2ccccc21.[Co+2]`, the GI50 (SNB-75 CNS) is reported as greater than 100 µM, the TGI (SNB-75 CNS) is reported as greater than 100 µM and the GI50 (786-0 renal) is reported as greater than 100 µM. For the same compound, the TGI (786-0 renal) was greater than 100 µM, the GI50 (MALME-3M melanoma) was 40.1 µM and the TGI (MALME-3M melanoma) was greater than 100 µM. For the same compound, the GI50 (SN12C renal) was greater than 100 µM, the TGI (SN12C renal) was greater than 100 µM and the GI50 (UACC-62 melanoma) was 57.1 µM. It also gave a TGI (UACC-62 melanoma) greater than 100 µM, a GI50 (HCT-116 colon) greater than 100 µM and a TGI (HCT-116 colon) greater than 100 µM. The GI50 (SK-MEL-28 melanoma) was greater than 100 µM, the TGI (SK-MEL-28 melanoma) was greater than 100 µM and the GI50 (TK-10 renal) was greater than 100 µM. The TGI (TK-10 renal) was greater than 100 µM, the GI50 (NCI-H522 lung) was 80.6 µM and the TGI (NCI-H522 lung) was greater than 100 µM. The GI50 (K-562 leukemia) was greater than 100 µM, the TGI (K-562 leukemia) was greater than 100 µM and the GI50 (MOLT-4 leukemia) was greater than 100 µM. For the same compound, the TGI (MOLT-4 leukemia) was greater than 100 µM, the GI50 (SF-268 CNS) was greater than 100 µM and the TGI (SF-268 CNS) was greater than 100 µM. For the same compound, the GI50 (NCI-H23 lung) was greater than 100 µM, the TGI (NCI-H23 lung) was greater than 100 µM and the GI50 (UACC-257 melanoma) was 90.8 µM. The TGI (UACC-257 melanoma) was greater than 100 µM, the GI50 (SW-620 colon) was greater than 100 µM and the TGI (SW-620 colon) was greater than 100 µM. For the same compound, the GI50 (OVCAR-3 ovarian) was 75.1 µM, the TGI (OVCAR-3 ovarian) was greater than 100 µM and the GI50 (OVCAR-4 ovarian) was greater than 100 µM. The TGI (OVCAR-4 ovarian) was greater than 100 µM, the GI50 (A498 renal) was greater than 100 µM and the TGI (A498 renal) was greater than 100 µM. For the same compound, the GI50 (M19-MEL melanoma) was greater than 100 µM, the TGI (M19-MEL melanoma) was greater than 100 µM and the GI50 (IGROV1 ovarian) was greater than 100 µM. The TGI (IGROV1 ovarian) was greater than 100 µM, the GI50 (SNB-19 CNS) was greater than 100 µM and the TGI (SNB-19 CNS) was greater than 100 µM. It also gave a GI50 (KM20L2 colon) greater than 100 µM, a TGI (KM20L2 colon) greater than 100 µM and a GI50 (KM12 colon) greater than 100 µM. For the same compound, the TGI (KM12 colon) was greater than 100 µM, the GI50 (HOP-18 NSCLC) was 54.4 µM and the TGI (HOP-18 NSCLC) was greater than 100 µM. The GI50 (UO-31 renal) was greater than 100 µM, the TGI (UO-31 renal) was greater than 100 µM and the GI50 (OVCAR-5 ovarian) was greater than 100 µM. It also gave a TGI (OVCAR-5 ovarian) greater than 100 µM, a GI50 (SF-295 CNS) of 59.6 µM and a TGI (SF-295 CNS) greater than 100 µM. It also gave a GI50 (EKVX NSCLC) greater than 100 µM, a TGI (EKVX NSCLC) greater than 100 µM and a GI50 (RPMI-8226 leukemia) greater than 100 µM. For the same compound, the TGI (RPMI-8226 leukemia) was greater than 100 µM, the GI50 (SK-MEL-5 melanoma) was greater than 100 µM and the TGI (SK-MEL-5 melanoma) was greater than 100 µM. It also gave a GI50 (HOP-92 NSCLC) of 62.4 µM, a TGI (HOP-92 NSCLC) greater than 100 µM and a GI50 (HOP-62 NSCLC) greater than 100 µM. For the same compound, the TGI (HOP-62 NSCLC) was greater than 100 µM, the GI50 (CCRF-CEM leukemia) was 38.6 µM and the TGI (CCRF-CEM leukemia) was greater than 100 µM. The GI50 (SF-539 CNS) was greater than 100 µM, the TGI (SF-539 CNS) was greater than 100 µM and the GI50 (ACHN renal) was greater than 100 µM. It also gave a TGI (ACHN renal) greater than 100 µM, a GI50 (DLD-1 colon) greater than 100 µM and a TGI (DLD-1 colon) greater than 100 µM. The GI50 (LOX IMVI melanoma) was 82.1 µM, the TGI (LOX IMVI melanoma) was greater than 100 µM and the GI50 (NCI-H226 lung) was greater than 100 µM. For the same compound, the TGI (NCI-H226 lung) was greater than 100 µM, the GI50 (HCC-2998 colon) was greater than 100 µM and the TGI (HCC-2998 colon) was greater than 100 µM. The GI50 (M14 melanoma) was greater than 100 µM, the TGI (M14 melanoma) was greater than 100 µM and the GI50 (OVCAR-8 ovarian) was greater than 100 µM. The TGI (OVCAR-8 ovarian) was greater than 100 µM, the GI50 (SK-OV-3 ovarian) was greater than 100 µM and the TGI (SK-OV-3 ovarian) was greater than 100 µM. For the same compound, the GI50 (A549 NSCLC) was greater than 100 µM, the TGI (A549 NSCLC) was greater than 100 µM and the GI50 (COLO 205 colon) was 38.5 µM. It also gave a TGI (COLO 205 colon) greater than 100 µM, a GI50 (HT29 colon) greater than 100 µM and a TGI (HT29 colon) greater than 100 µM. For the same compound, the GI50 (CAKI-1 renal) was 57.3 µM, the TGI (CAKI-1 renal) was greater than 100 µM and the GI50 (U251 CNS) was greater than 100 µM. For the same compound, the TGI (U251 CNS) was greater than 100 µM.
